Source: patent US11712457B2, “Syringa pubescens microphylla seed extract composition and its application in antibiotic-resistant infections” (SHAANXI UNIVERSITY OF SCIENCE AND TECHNOLOGY, priority 2020, dated 2023)

Assays:
Test in all cases: Paper diffusion drug sensitivity test (zone of inhibition)
Type in all cases: cell-based
[1] = test system: multi-drug resistant Staphylococcus aureus 18-171; settings: strain 18-171; LB agar, 37° C., 24 h; control drugs 30 μg/tablet, extract 128 μg/tablet; ≥17 mm sensitive, 15-16 mm intermediate, ≤14 mm resistant
[2] = test system: Staphylococcus aureus (SAU); settings: LB agar, 37° C., 24 h, control drugs 30 μg/tablet, extract 128 μg/tablet, ≥17 mm sensitive, 15-16 mm intermediate, ≤14 mm resistant
Protocol: (§1) The bacteriostatic activity test experiment was carried out on the Syringa pubescens microphylla extract of the present invention, and the bacteriostatic effect was determined by a paper diffusion drug sensitivity method.
(§2) Experimental strains: Staphylococcus aureus (SAU), multi-drug resistant Staphylococcus aureus 18-206, multi-drug resistant Pseudomonas aeruginosa 18-261. The experimental strains were provided by Huashan Hospital, Fudan University (Institute of Antibiotics, Fudan University).
(§3) Drug sensitive paper: The drug sensitive paper is a special drug sensitive paper with a diameter of 6.35 mm and a water absorption of 0.02 mL. The control drugs were cefazolin sodium (30 μg/tablet), vancomycin (30 μg/tablet) and gentamicin (30 μg/tablet); the test drug was the Syringa pubescens microphylla extract (128 μg/tablet).
(§4) The experimental strains were inoculated in a non-selective medium and incubated in air at 37 C for 24 hours. A single colony was selected and inoculated into a broth medium, and incubated at 35±2° C. for 6 hours. LA broth medium was used to correct the concentration of the bacterial solution to 1.5×10^8 CFU/mL to obtain a bacterial suspension.
(§5) Weighing LB dry powder, autoclaving at 103.4 Kpa, 121.3° C. for 15 min, then placing in a 40° C.-50° C. water bath. Sterile empty plates (with an inner diameter of 9 cm) were placed on a water platform of the ultra-clean table. LB solution was poured to the plates, with agar thickness of 3 mm-4 mm. After the plates were cooled at room temperature, they were stored in a refrigerator at 2° C. to 8° C. Bacteria liquid was spread evenly with a sterile cotton swab on the surface of the LB plate 3 times. The LB plate was dried at room temperature for 3 min to 5 min. An antibacterial drug paper sheet was placed in the plate using sterile tweezers. The plates were placed in a 37° C. incubator for 24 h. The diameter of inhibition zone was measured. 0.5% DMSO solution was used as the negative control. The diameter of inhibition zone was to measure the antibacterial activity. Inhibition zone≥17 mm, sensitive; inhibition zone=15 mm-16 mm, intermediate; inhibition zone≤14 mm, resistant.

[3] = test system: multi-drug resistant Pseudomonas aeruginosa 18-261; settings: strain 18-261; LB agar, 37° C., 24 h; control drugs 30 μg/tablet, extract 128 μg/tablet; ≥17 mm sensitive, 15-16 mm intermediate, ≤14 mm resistant
Protocol: as §1, §2, §3, §4, §5

| Molecule | Diameter of Inhibition Zone [1] [mm] | Diameter of Inhibition Zone [2] [mm] | Diameter of Inhibition Zone [3] [mm] |
| --- | --- | --- | --- |
| Cc1nnc(SCC2=C(C(=O)O)N3C(=O)[C@@H](NC(=O)Cn4cnnn4)[C@H]3SC2)s1 [cefazolin sodium] | 0 | 10 | 0 |
| CN[C@H](CC(C)C)C(=O)N[C@H]1C(=O)N[C@@H](CC(N)=O)C(=O)N[C@H]2C(=O)N[C@H]3C(=O)N[C@H](C(=O)N[C@H](C(=O)O)c4cc(O)cc(O)c4-c4cc3ccc4O)[C@H](O)c3ccc(c(Cl)c3)Oc3cc2cc(c3O[C@@H]2O[C@H](CO)[C@@H](O)[C@H](O)[C@H]2O[C@H]2C[C@](C)(N)[C@H](O)[C@H](C)O2)Oc2ccc(cc2Cl)[C@H]1O [vancomycin] | 17 | 23 |  |
| gentamicin | 16 | 18 | 17 |
